Tests used:
GP = details: in vivo
Salmonella typhimurium = test: In vitro Ames test, reverse mutation assay; assay type: cell-based
minipigs = test: MTD Dermal Minipigs; assay type: in vivo; details: 5 mg/kg/day for up to 6 days
CDK6/cyclinD3(h) = CDK6/cyclinD3(h) (Homo sapiens, UniProt Q00534); test: KinaseProfiler kinase selectivity assay; assay type: biochemical
Method: (§1) All compounds were prepared to 50× final assay concentration in 100% DMSO. This working stock of the compound was added to the assay well as the first component in the reaction, followed by the remaining components. In the standard KinaseProfiler™ service, there is no pre-incubation step between the compound and the kinase prior to initiation of the reaction. The positive control wells contain all components of the reaction, except the compound of interest; however, DMSO (at a final concentration of 2%) is included in these wells to control for solvent effects. The blank wells contain all components of the reaction, with a reference inhibitor replacing the compound of interest. This abolishes kinase activity and establishes the base-line (0% kinase activity remaining).

PKA(h) = PKA(h) (Homo sapiens, UniProt P17612); test: KinaseProfiler kinase selectivity assay; assay type: biochemical
Method: as §1

SAPK2a(h) = SAPK2a(h) (Homo sapiens, UniProt Q16539); test: KinaseProfiler kinase selectivity assay; assay type: biochemical
Method: as §1

[1] = biological target: PI3 Kinase (p110β/p85α)(h) (Homo sapiens, UniProt P42338); test: KinaseProfiler kinase selectivity assay; assay type: biochemical
Method: as §1

ALK(h) = ALK(h) (Homo sapiens, UniProt Q9UM73); test: KinaseProfiler kinase selectivity assay; assay type: biochemical
Method: as §1

CK2α2(h) = CK2α2(h) (Homo sapiens, UniProt P19784); test: KinaseProfiler kinase selectivity assay; assay type: biochemical
Method: as §1

ASK1(h) = ASK1(h) (Homo sapiens, UniProt Q99683); test: KinaseProfiler kinase selectivity assay; assay type: biochemical
Method: as §1

Rsk1(h) = Rsk1(h) (Homo sapiens, UniProt Q15418); test: KinaseProfiler kinase selectivity assay; assay type: biochemical
Method: as §1

PKCθ(h) = PKCθ(h) (Homo sapiens, UniProt Q04759); test: KinaseProfiler kinase selectivity assay; assay type: biochemical
Method: as §1

MSK2(h) = MSK2(h) (Homo sapiens, UniProt O75676); test: KinaseProfiler kinase selectivity assay; assay type: biochemical
Method: as §1

CHK1(h) = CHK1(h) (Homo sapiens, UniProt O14757); test: KinaseProfiler kinase selectivity assay; assay type: biochemical
Method: as §1

MKK7β(h) = MKK7β(h) (Homo sapiens, UniProt O14733); test: KinaseProfiler kinase selectivity assay; assay type: biochemical
Method: as §1

Pim-1(h) = Pim-1(h) (Homo sapiens, UniProt P11309); test: KinaseProfiler kinase selectivity assay; assay type: biochemical
Method: as §1

TAK1(h) = TAK1(h) (Homo sapiens, UniProt O43318); test: KinaseProfiler kinase selectivity assay; assay type: biochemical
Method: as §1

wild-type BRaf = wild-type BRaf (Homo sapiens, UniProt P15056); test: BRaf inhibitory activity assay; assay type: biochemical; details: read-out: Compound IC50 BRAF
Method: (§2) In this assay, the BRaf inhibitory activity of the compound of formula I, where
(§3) Reactions were carried out at 10 μM ATP.

BRAF (V600E) = BRAF (V600E) (Homo sapiens, UniProt P15056, V600E); test: BRaf inhibitory activity assay; assay type: biochemical; details: read-out: Compound IC50 BRAF (V600E)
Method: as §2, §3

Escherichia coli = test: In vitro Ames test, reverse mutation assay; assay type: cell-based
[2] = BCOP study (eye irritation)
[3] = ex vivo skin permeation and penetration, MedFlux-HT diffusion cells; assay type: in vitro ADME; details: topical composition comprising LUT014; skin sample; after 24 hours; citrate/phosphate buffer pH 4.0 with 0.01% Brij
Method: An ex vivo permeation and penetration experiment for a topical composition comprising LUT-014 was conducted using MedFlux-HT™ continuous flow through diffusion cells. A skin sample was placed between donor and receptor compartments of the diffusion cell. The diffusion of the topical composition was measured using a citrate/phosphate buffer (pH 4.0) with 0.01% Brij as a receptor solution. LUT014 permeated into the skin sample was extracted using 90/10 acetonitrile/water as an extraction solvent.

Sequence of Rsk1(h) (Q15418 whole entry): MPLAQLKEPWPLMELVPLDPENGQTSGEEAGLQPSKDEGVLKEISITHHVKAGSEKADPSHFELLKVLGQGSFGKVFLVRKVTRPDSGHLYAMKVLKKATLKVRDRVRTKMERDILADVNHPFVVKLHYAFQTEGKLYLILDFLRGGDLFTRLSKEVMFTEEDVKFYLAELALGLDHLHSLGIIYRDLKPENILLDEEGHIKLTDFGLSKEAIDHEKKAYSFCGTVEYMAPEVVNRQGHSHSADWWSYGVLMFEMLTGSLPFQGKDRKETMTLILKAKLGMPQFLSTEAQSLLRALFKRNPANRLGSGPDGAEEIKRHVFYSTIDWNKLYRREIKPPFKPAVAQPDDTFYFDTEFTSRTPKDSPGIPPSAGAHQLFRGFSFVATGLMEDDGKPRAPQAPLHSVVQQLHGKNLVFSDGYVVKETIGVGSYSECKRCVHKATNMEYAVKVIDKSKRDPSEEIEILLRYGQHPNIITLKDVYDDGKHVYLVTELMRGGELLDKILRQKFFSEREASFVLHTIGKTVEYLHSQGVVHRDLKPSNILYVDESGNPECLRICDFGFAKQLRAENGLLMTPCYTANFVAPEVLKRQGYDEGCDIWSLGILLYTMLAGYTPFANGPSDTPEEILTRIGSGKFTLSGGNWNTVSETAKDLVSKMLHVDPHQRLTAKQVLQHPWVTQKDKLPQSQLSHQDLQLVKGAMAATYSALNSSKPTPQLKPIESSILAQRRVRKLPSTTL
Sequence of CHK1(h) (O14757 whole entry): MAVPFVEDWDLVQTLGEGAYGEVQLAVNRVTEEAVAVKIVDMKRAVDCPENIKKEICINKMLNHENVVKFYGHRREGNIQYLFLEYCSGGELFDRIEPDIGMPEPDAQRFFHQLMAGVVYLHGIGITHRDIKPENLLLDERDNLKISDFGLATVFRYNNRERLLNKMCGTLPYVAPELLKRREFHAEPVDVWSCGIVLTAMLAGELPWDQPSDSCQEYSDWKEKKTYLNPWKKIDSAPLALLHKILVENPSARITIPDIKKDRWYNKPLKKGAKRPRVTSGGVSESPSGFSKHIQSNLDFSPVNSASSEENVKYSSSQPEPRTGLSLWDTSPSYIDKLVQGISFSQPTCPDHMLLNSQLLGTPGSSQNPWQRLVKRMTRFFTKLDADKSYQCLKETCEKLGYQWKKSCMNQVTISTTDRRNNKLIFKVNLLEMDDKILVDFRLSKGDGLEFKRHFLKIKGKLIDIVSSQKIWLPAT
Sequence of CK2α2(h) (P19784 whole entry): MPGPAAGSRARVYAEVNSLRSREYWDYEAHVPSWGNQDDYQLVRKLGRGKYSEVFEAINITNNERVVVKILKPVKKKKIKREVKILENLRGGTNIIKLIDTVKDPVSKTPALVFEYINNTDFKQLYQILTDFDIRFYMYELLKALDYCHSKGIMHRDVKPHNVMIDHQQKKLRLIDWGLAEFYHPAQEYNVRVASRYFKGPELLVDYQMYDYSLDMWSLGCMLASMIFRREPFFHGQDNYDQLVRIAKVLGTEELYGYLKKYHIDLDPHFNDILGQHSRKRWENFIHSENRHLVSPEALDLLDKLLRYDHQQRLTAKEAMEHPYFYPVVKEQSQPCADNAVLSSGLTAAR
Sequence of MKK7β(h) (O14733 whole entry): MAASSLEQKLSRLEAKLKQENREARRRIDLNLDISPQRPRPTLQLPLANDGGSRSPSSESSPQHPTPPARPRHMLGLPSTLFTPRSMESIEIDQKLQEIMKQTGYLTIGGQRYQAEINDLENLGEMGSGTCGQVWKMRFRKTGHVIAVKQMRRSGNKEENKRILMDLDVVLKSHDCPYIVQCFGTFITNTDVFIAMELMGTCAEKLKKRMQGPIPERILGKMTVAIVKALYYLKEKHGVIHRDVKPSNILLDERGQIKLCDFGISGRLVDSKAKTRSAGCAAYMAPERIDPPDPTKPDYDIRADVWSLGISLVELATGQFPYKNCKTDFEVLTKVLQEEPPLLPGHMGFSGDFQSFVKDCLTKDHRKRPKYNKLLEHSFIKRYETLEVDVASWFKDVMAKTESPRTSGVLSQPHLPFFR
Sequence of ASK1(h) (Q99683 whole entry): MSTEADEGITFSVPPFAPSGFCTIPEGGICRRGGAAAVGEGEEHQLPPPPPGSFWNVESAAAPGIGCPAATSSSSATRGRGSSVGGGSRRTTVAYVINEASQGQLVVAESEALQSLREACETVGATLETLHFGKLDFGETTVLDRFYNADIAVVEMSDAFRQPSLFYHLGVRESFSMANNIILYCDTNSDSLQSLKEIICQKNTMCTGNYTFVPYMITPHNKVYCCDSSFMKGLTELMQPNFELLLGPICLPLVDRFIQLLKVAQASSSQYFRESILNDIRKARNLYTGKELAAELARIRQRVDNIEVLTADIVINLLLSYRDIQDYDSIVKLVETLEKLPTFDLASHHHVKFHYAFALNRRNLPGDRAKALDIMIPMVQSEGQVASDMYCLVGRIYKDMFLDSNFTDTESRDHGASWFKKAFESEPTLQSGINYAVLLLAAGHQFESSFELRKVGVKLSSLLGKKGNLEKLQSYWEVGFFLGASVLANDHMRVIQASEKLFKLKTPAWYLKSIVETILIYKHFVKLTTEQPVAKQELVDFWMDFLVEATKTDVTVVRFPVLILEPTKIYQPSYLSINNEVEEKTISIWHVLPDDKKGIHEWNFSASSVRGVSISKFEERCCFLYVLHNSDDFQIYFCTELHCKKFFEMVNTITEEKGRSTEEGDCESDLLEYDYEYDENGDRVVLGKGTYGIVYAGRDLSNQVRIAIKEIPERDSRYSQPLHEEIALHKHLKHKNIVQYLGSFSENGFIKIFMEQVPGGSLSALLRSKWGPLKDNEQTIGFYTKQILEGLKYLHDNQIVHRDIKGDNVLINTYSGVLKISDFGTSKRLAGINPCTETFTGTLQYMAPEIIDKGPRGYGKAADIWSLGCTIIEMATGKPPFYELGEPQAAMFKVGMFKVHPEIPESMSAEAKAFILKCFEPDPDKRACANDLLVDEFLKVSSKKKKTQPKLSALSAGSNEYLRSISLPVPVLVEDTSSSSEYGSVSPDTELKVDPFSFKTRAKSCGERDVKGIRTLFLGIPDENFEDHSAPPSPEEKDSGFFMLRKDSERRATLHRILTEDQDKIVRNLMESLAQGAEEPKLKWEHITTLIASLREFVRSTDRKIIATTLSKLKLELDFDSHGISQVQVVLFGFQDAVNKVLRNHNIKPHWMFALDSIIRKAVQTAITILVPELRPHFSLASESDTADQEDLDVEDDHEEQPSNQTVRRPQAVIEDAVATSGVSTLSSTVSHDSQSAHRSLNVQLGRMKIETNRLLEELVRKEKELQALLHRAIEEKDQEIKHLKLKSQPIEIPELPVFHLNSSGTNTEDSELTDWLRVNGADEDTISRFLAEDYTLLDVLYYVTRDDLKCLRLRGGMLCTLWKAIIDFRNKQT
Sequence of Pim-1(h) (P11309 whole entry): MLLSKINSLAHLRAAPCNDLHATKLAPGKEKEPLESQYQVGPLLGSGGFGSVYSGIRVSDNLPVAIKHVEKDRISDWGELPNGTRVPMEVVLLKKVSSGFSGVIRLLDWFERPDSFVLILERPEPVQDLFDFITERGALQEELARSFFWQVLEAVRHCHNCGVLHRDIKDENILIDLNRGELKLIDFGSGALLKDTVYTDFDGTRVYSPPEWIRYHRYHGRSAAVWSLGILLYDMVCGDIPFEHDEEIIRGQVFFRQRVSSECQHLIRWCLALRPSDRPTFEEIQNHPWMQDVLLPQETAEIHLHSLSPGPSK
Sequence of MSK2(h) (O75676 whole entry): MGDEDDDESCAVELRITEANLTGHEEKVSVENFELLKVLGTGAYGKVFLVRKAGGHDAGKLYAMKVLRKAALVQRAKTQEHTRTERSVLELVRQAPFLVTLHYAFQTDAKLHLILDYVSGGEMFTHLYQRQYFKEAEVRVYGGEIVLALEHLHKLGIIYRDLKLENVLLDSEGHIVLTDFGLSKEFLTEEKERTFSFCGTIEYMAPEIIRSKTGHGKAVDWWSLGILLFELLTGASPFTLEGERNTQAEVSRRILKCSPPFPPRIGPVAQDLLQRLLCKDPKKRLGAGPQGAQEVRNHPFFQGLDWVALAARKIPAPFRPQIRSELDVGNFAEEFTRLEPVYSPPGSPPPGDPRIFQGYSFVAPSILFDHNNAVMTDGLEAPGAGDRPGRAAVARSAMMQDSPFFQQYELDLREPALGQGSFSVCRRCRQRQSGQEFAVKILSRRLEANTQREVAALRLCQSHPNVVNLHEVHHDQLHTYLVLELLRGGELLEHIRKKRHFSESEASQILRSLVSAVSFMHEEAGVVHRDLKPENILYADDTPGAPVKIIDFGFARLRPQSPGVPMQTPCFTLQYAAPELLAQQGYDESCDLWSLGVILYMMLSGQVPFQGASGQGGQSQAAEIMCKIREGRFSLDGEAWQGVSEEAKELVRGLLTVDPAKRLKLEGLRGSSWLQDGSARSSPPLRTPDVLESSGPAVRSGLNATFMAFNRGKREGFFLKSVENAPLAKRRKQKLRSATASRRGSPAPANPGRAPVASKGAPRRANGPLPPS
Sequence of SAPK2a(h) (Q16539 whole entry): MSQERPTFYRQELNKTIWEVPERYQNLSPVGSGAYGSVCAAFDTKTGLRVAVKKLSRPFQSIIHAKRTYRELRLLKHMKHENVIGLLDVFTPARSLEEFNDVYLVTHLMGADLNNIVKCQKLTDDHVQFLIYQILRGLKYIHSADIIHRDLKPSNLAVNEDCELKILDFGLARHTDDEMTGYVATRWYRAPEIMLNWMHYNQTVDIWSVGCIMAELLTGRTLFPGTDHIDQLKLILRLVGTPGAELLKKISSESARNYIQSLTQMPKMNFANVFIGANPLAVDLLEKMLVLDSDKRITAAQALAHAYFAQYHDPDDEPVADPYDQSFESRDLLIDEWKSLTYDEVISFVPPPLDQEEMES

## Cc1ccc2c(Nc3cccc(OC(F)(F)F)c3)nccc2c1Nc1ncccc1-c1ncnc2[nH]cnc12 [LUT014]
GP
  dermal sensitization: The test article is not
Salmonella typhimurium
  mutagenicity, Salmonella typhimurium reverse mutation assay: not mutagenic
minipigs
  tolerability: well tolerated in minipigs at
CDK6/cyclinD3(h); Lut014 @ 0.01 μM
  remaining activity at 0.01 µM: 100%
CDK6/cyclinD3(h); Lut014 @ 1 μM
  remaining activity at 1 µM: 103%
PKA(h); Lut014 @ 0.01 μM
  remaining activity at 0.01 µM: 114%
PKA(h); Lut014 @ 1 μM
  remaining activity at 1 µM: 106%
SAPK2a(h); Lut014 @ 0.01 μM
  remaining activity at 0.01 µM: 97%
SAPK2a(h); Lut014 @ 1 μM
  remaining activity at 1 µM: 54%
[1]; Lut014 @ 0.01 μM
  remaining activity at 0.01 µM: 101%
[1]; Lut014 @ 1 μM
  remaining activity at 1 µM: 95%
ALK(h); Lut014 @ 0.01 μM
  remaining activity at 0.01 µM: 150%
ALK(h); Lut014 @ 1 μM
  remaining activity at 1 µM: 83%
CK2α2(h); Lut014 @ 0.01 μM
  remaining activity at 0.01 µM: 98%
CK2α2(h); Lut014 @ 1 μM
  remaining activity at 1 µM: 92%
ASK1(h); Lut014 @ 0.01 μM
  remaining activity at 0.01 µM: 109%
ASK1(h); Lut014 @ 1 μM
  remaining activity at 1 µM: 99%
Rsk1(h); Lut014 @ 0.01 μM
  remaining activity at 0.01 µM: 106%
Rsk1(h); Lut014 @ 1 μM
  remaining activity at 1 µM: 112%
PKCθ(h); Lut014 @ 0.01 μM
  remaining activity at 0.01 µM: 106%
PKCθ(h); Lut014 @ 1 μM
  remaining activity at 1 µM: 109%
MSK2(h); Lut014 @ 0.01 μM
  remaining activity at 0.01 µM: 92%
MSK2(h); Lut014 @ 1 μM
  remaining activity at 1 µM: 96%
CHK1(h); Lut014 @ 0.01 μM
  remaining activity at 0.01 µM: 100%
CHK1(h); Lut014 @ 1 μM
  remaining activity at 1 µM: 114%
MKK7β(h); Lut014 @ 0.01 μM
  remaining activity at 0.01 µM: 100%
MKK7β(h); Lut014 @ 1 μM
  remaining activity at 1 µM: 103%
Pim-1(h); Lut014 @ 0.01 μM
  remaining activity at 0.01 µM: 96%
Pim-1(h); Lut014 @ 1 μM
  remaining activity at 1 µM: 89%
TAK1(h); Lut014 @ 0.01 μM
  remaining activity at 0.01 µM: 91%
TAK1(h); Lut014 @ 1 μM
  remaining activity at 1 µM: 97%
wild-type BRaf
  IC50: 11.7 nM
BRAF (V600E)
  IC50: 13.3 nM
Escherichia coli
  mutagenicity, Escherichia coli reverse mutation assay: not mutagenic
[2]
  IVIS: ≤ 3
  classification for eye irritation or serious eye damage: no classification is required
[3]
  maximum accumulated level of LUT014 in the receptor solution: less than 2 ng/mL
